From patent EP4578856A1, “HETEROCYCLIC COMPOUND” (Ubience Inc., priority 2022, dated 2024)

Molecular target: ROCK2 protein (Homo sapiens, UniProt O75116)
Assay: Degradation inducing activity of ROCK2 protein in HUVEC cells, Western blotting (Simple Western JESS)
Assay type: cell-based
Parameters: endogenous in cells; host or cells: HUVEC (ATCC CRL-1730)
Conditions: for inhibition at 1 µM / inhibition at 10 µM: HUVEC, 24 h; for ROCK2 protein degradation rate: 24 hours
Summary of the method: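 HUVEC cells treated 24 h with compound at 10 µM or 1 µM, then lysed; ROCK2 quantified by capillary Western (Simple Western JESS) using rabbit mAb D1B1, normalized to total loaded protein. Degradation rate (%) calculated relative to DMSO control set at 100%, binned A ≥75%, B 50–75%, C 25–50%, D <25%.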

ROCK2 protein, sequence (O75116 whole entry): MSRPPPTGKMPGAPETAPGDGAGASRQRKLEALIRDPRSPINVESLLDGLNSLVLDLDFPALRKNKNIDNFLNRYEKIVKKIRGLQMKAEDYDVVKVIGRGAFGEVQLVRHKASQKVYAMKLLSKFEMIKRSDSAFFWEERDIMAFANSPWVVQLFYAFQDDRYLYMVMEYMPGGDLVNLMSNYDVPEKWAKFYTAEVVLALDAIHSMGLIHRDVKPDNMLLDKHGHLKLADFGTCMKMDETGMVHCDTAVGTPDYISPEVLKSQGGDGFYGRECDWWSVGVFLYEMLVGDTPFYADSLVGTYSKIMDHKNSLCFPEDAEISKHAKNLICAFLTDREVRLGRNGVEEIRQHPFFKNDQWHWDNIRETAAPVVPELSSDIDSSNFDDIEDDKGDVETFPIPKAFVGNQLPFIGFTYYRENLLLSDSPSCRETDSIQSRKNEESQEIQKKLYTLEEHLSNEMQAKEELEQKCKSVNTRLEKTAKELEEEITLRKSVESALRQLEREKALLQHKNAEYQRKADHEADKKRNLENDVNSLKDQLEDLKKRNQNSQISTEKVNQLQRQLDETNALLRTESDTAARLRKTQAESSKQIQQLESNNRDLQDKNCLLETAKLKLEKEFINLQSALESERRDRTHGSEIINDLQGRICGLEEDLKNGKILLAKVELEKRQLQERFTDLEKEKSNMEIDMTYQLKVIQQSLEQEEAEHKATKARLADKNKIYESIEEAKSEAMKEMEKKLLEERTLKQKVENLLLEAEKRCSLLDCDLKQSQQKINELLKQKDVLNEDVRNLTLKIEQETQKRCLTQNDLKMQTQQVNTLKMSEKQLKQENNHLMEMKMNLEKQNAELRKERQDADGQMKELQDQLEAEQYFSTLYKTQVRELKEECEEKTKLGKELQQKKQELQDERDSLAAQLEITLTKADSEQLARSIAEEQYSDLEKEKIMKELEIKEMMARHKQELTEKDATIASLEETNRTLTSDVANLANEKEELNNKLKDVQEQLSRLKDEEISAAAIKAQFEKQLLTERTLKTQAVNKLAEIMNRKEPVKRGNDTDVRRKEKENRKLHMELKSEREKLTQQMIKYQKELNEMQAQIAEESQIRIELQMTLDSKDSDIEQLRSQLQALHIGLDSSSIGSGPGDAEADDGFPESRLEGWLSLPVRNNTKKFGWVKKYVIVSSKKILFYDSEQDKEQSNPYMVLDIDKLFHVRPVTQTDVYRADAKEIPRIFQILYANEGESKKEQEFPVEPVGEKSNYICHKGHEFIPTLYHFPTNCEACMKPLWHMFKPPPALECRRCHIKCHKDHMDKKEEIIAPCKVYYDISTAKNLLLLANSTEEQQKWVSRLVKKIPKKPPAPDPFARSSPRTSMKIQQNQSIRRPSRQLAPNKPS

| SMILES | inhibition at 1 µM (degradation rate at 1 µM) [%] | inhibition at 10 µM (degradation rate at 10 µM) [%] | ROCK2 protein degradation rate (degradation rate at 1 µM) | ROCK2 protein degradation rate (degradation rate at 10 µM) |
| --- | --- | --- | --- | --- |
| COC[C@H]1CN[C@H](C)CN1CC(=O)N1CC(C)(C)c2ncc(Cc3cccc(OCCOCCOCCOCCOCCNC[C@@H](C(=O)Nc4ccc5cnccc5c4)c4ccccc4)c3)cc21 [Example 60, (S)-N-(Isoquinolin-6-yl)-1-(3-((1-(2-((2R,5R)-2-(methoxymethyl)-5-methylpiperazin-1-yl)acetyl)-3,3-dimethyl-2,3-dihydro-1H-pyrrolo[3,2-b]pyridin-6-yl)methyl)phenoxy)-17-phenyl-3,6,9,12-tetraoxa-15-azaoctadecan-18-amide] | 25 to 50 | ≥ 75 | – | – |
| COC[C@H]1CN[C@H](C)CN1CC(=O)N1CC(C)(C)c2ncc(Cc3cccc(OCCOCCOCCNC[C@@H](C(=O)Nc4ccc5cnccc5c4)c4ccccc4)c3)cc21 [Example 58, (S)-N-(Isoquinolin-6-yl)-3-((2-(2-(2-(3-((1-(2-((2R,5R)-2-(methoxymethyl)-5-methylpiperazin-1-yl)acetyl)-3,3-dimethyl-2,3-dihydro-1H-pyrrolo[3,2-b]pyridin-6-yl)methyl)phenoxy)ethoxy)ethoxy)ethyl)amino)-2-phenylpropanamide] | 50 to 75 | ≥ 75 | – | – |
| COC[C@H]1CN[C@H](C)CN1CC(=O)N1CC(C)(C)c2ncc(Cc3cccc(OCCOCCOCCOCCOCCN[C@H](C)c4ccc(C(=O)Nc5ccncc5)cc4)c3)cc21 [Example 46, 4-((R)-17-(3-((1-(2-((2R,5R)-2-(Methoxymethyl)-5-methylpiperazin-1-yl)acetyl)-3,3-dimethyl-2,3-dihydro-1H-pyrrolo[3,2-b]pyridin-6-yl)methyl)phenoxy)-6,9,12,15-tetraoxa-3-azaheptadecan-2-yl)-N-(pyridin-4-yl)benzamide] | 25 to 50 | 25 to 50 | – | – |
| COC[C@H]1CN[C@H](C)CN1CC(=O)N1CC(C)(C)c2ncc(Cc3cccc(OCCOCCOCCOCCOCCOCCN[C@H](C)c4ccc(C(=O)Nc5ccncc5)cc4)c3)cc21 [Example 47, 4-((R)-20-(3-((1-(2-((2R,5R)-2-(Methoxymethyl)-5-methylpiperazin-1-yl)acetyl)-3,3-dimethyl-2,3-dihydro-1H-pyrrolo[3,2-b]pyridin-6-yl)methyl)phenoxy)-6,9,12,15,18-pentaoxa-3-azaicosan-2-yl)-N-(pyridin-4-yl)benzamide] | 50 to 75 | ≥ 75 | – | – |
| COC[C@H]1CN[C@H](C)CN1CC(=O)N1CC(C)(C)c2ncc(Cc3ccccc3OCCOCCOCCN[C@H](C)c3ccc(C(=O)Nc4ccncc4)cc3)cc21 [Example 65, 4-((R)-1-((2-(2-(2-(2-((1-(2-((2R,5R)-2-(Methoxymethyl)-5-methylpiperazin-1-yl)acetyl)-3,3-dimethyl-2,3-dihydro-1H-pyrrolo[3,2-b]pyridin-6-yl)methyl)phenoxy)ethoxy)ethoxy)ethyl)amino)ethyl)-N-(pyridin-4-yl)benzamide] | – | – | D (D < 25%) | B (75% > B ≥ 50%) |
| C[C@@H]1CN(CC(=O)N2CC(C)(C)c3ncc(Cc4ccc(F)cc4)cc32)[C@@H](CN(C)CCOCCOCCOCCN[C@H](Cc2cccc(F)c2)C(=O)Nc2ccc(-c3ccncc3)cc2)CN1 [Example 10, (R)-15-(3-Fluorobenzyl)-1-((2R,5R)-1-(2-(6-(4-fluorobenzyl)-3,3-dimethyl-2,3-dihydro-1H-pyrrolo[3,2-b]pyridin-1-yl)-2-oxoethyl)-5-methylpiperazin-2-yl)-2-methyl-N-(4-(pyridin-4-yl)phenyl)-5,8,11-trioxa-2,14-diazahexadecan-16-amide] | 25 to 50 | ≥ 75 | – | – |
| C[C@@H]1CN(CC(=O)N2CC(C)(C)c3ncc(Cc4ccc(F)cc4)cc32)[C@@H](CN(C)CCOCCOCCOCCOCCOCCOCCN[C@H](C)c2ccc(C(=O)Nc3ccncc3)cc2)CN1 [Example 6, 4-((R)-1-((2R,5R)-1-(2-(6-(4-Fluorobenzyl)-3,3-dimethyl-2,3-dihydro-1H-pyrrolo[3,2-b]pyridin-1-yl)-2-oxoethyl)-5-methylpiperazin-2-yl)-2-methyl-5,8,11,14,17,20-hexaoxa-2,23-diazapentacosan-24-yl)-N-(pyridin-4-yl)benzamide] | 50 to 75 | ≥ 75 | – | – |
| COC[C@H]1CN[C@H](C)CN1CC(=O)N1CC(C)(C)c2ncc(Cc3cccc(OCCOCCOCCN[C@H](Cc4cccc(F)c4)C(=O)Nc4ccc(-c5ccncc5)cc4)c3)cc21 [Example 51, (R)-3-(3-Fluorophenyl)-2-((2-(2-(2-(3-((1-(2-((2R,5R)-2-(methoxymethyl)-5-methylpiperazin-1-yl)acetyl)-3,3-dimethyl-2,3-dihydro-1H-pyrrolo[3,2-b]pyridin-6-yl)methyl)phenoxy)ethoxy)ethoxy)ethyl)amino)-N-(4-(pyridin-4-yl)phenyl)propenamide] | 50 to 75 | ≥ 75 | – | – |
| COC[C@H]1CN[C@H](C)CN1CC(=O)N1CC(C)(C)c2nc(CN(C)CCOCCOCCOCCOCCOCCN[C@H](Cc3cccc(F)c3)C(=O)Nc3ccc(-c4ccncc4)cc3)c(Cc3ccc(F)cc3)cc21 [Example 33, (R)-21-(3-Fluorobenzyl)-1-(6-(4-fluorobenzyl)-1-(2-((2R,5R)-2-(methoxymethyl)-5-methylpiperazin-1-yl)acetyl)-3,3-dimethyl-2,3-dihydro-1H-pyrrolo[3,2-b]pyridin-5-yl)-2-methyl-N-(4-(pyridin-4-yl)phenyl)-5,8,11,14,17-pentaoxa-2,20-diazadocosan-22-amide] | < 25 | ≥ 75 | – | – |
| C[C@@H]1CN(CC(=O)N2CC(C)(C)c3ncc(Cc4ccc(F)cc4)cc32)[C@@H](CN(C)CCOCCOCCOCCOCCOCCOCCNC[C@@H](C(=O)Nc2ccc3cnccc3c2)c2ccccc2)CN1 [Example 20, (S)-1-((2R,5R)-1-(2-(6-(4-Fluorobenzyl)-3,3-dimethyl-2,3-dihydro-1H-pyrrolo[3,2-b]pyridin-1-yl)-2-oxoethyl)-5-methylpiperazin-2-yl)-N-(isoquinolin-6-yl)-2-methyl-25-phenyl-5,8,11,14,17,20-hexaoxa-2,23-diazahexacosan-26-amide] | 50 to 75 | ≥ 75 | – | – |
| COC[C@H]1CN[C@H](C)CN1CC(=O)N1CC(C)(C)c2nc(CN(C)CCOCCOCCOCCOCCNC[C@@H](C(=O)Nc3ccc4cnccc4c3)c3ccccc3)c(Cc3ccc(F)cc3)cc21 [Example 39, (S)-1-(6-(4-Fluorobenzyl)-1-(2-((2R,5R)-2-(methoxymethyl)-5-methylpiperazin-1-yl)acetyl)-3,3-dimethyl-2,3-dihydro-1H-pyrrolo[3,2-b]pyridin-5-yl)-N-(isoquinolin-6-yl)-2-methyl-19-phenyl-5,8,11,14-tetraoxa-2,17-diazaicosan-20-amide] | 25 to 50 | ≥ 75 | – | – |
| COC[C@H]1CN[C@H](C)CN1CC(=O)N1CC(C)(C)c2ncc(Cc3cccc(OCCOCCOCCOCCNC[C@@H](C(=O)Nc4ccc5cnccc5c4)c4ccccc4)c3)cc21 [Example 59, (S)-N-(Isoquinolin-6-yl)-1-(3-((1-(2-((2R,5R)-2-(methoxymethyl)-5-methylpiperazin-1-yl)acetyl)-3,3-dimethyl-2,3-dihydro-1H-pyrrolo[3,2-b]pyridin-6-yl)methyl)phenoxy)-14-phenyl-3,6,9-trioxa-12-azapentadecan-15-amide] | ≥ 75 | ≥ 75 | – | – |
